Read-outs that look alike come from different tables or passages of the source.
Experiments:
[1] = system: epidermal keratinocytes
[2] = system: basal epidermal cells; assay: BrdU incorporation in basal keratinocytes after TPA treatment; assay type: in vivo, mice
Experimental: 5-bromo-2-deoxyuridine (BrdU) incorporation. 8-week-old K14.ATF2^f/f mice and WT mice were shaved 2 days before treatment with TPA (10 μg/200 μl acetone). BrdU (0.1 mg/g body weight) was injected intraperitoneally 1 h before the mice were sacrificed. The mice were euthanized 7, 24 and 48 h after six TPA treatments and their dorsal skins were removed, fixed in formalin and processed for paraffin embedding. Immunohistochemical staining was performed with a monoclonal anti-BrdU antibody (Sigma Aldrich, 1:100), which was applied to each section overnight at 4° C. after masking mouse IgG according to the protocol of the M.O.M. kit. […] BrdU positive and negative basal cells were counted in three to five randomly selected areas of each skin section (3-4 sections per mouse) and the mean percentage of BrdU-positive cells and standard deviation (s.d.) for each treatment group were determined.
Induced DNA synthesis in basal epidermal cells of TPA-treated K14.ATF2^f/f mice. In light of the enhanced hyperplastic responses seen in the epidermis of K14.ATF2^f/f mice, possible changes in the rate of keratinocyte proliferation, which could account for the increased hyperplasia, were assessed. BrdU labeling was carried out to quantify DNA synthesis in basal keratinocytes. […]

[3] = system: epidermis; conditions: three topical applications of TPA at 10 μg each; for thickness of hyperplastic epidermis (mean±SD): 18 hrs post treatment; for thickness of epidermal layers: after 48 hrs
Experimental: Measurement of Hyperplasia. Hyperplasia was assessed in six WT and K14.ATF2^f/f mice (8-week-old) after treatment with acetone or TPA at the indicated time points. The thickness of the epidermis (μm) was measured using an image system (SlideBook-Intelligent imaging) in 15 fields per section.
In order to determine the possible effect of ATF2 disruption on keratinocyte proliferation possible changes in epidermal hyperplasia was assessed.

SMILES | mice having developed tumors ([1]; mouse, in vivo) [%] | mice that had developed tumors ([1]; mouse, in vivo) | papilloma development ([1]; mouse, in vivo) | time at which papillomas started to appear after DMBA treatment ([1]; mouse, in vivo) | percentage of BrdU-labeled basal cells ([2]; K14.ATF2f/f mice, 24 h after TPA treatment) [%] | percentage of BrdU-labeled basal cells ([2]; wild-type mice, 24 hours after TPA treatment) [%] | thickness of hyperplastic epidermis (mean±SD) ([3]; K14.ATF2f/f mice) [μm] | thickness of epidermal layers ([3]; K14.ATF2f/f mice) [μm] | thickness of hyperplastic epidermis (mean±SD) ([3]; WT mice) [μm] | thickness of epidermal layers ([3]; wild-type mice) [μm] | papilloma development ([1]; DMBA or TPA alone, WT or ATF2 mutant mice)
Cc1c2ccccc2c(C)c2c1ccc1ccccc12 [DMBA, 7,12-dimethylbenz[a]anthracene] | 50 | about 40% | did not result in papilloma development | around 17 weeks |  |  |  |  |  |  | 
CCCCCCCCCCCCCC(=O)O[C@@H]1[C@@H](C)[C@@]2(O)[C@@H](C=C(CO)C[C@]3(O)C(=O)C(C)=C[C@@H]23)[C@H]2C(C)(C)[C@]12OC(C)=O [TPA] |  |  |  |  | 32±3.0 | 15±3 | 42±3.2 | 102±2.8 | 21±2.6 | 45±2.3 | did not result in papilloma development
